From patent publication US10882854B2, “Heterocyclic compounds and use thereof” (National Health Research Institutes, priority 2017, dated 2021)

Key:
[1] = system: T-cell acute lymphoblastic leukemia (CCRF-CEM) cells; experiment: Inhibition of CXCL12-induced chemotaxis in lymphoblastic leukemia cells; type: cell-based; conditions: Homo sapiens, CXCL12 10 nM, 2.5 h at 37 °C, read-out: concentration required to inhibit chemotaxis by 50% (EC50)
Experimental: The response of cancer cells to compounds of Formula (I) was evaluated using the chemotaxis assay as set forth below.
T-cell acute lymphoblastic leukemia (CCRF-CEM) cells in Roswell Park Memorial Institute medium (RPMI) 1640 supplemented with 10% […] were incubated with 250 μL of a test compound. The assay was performed using Millicell Hanging Cell Culture Inserts (pore size 5 μm; 24-well plate; Millipore, Bedford, Mass., USA). After 10 minutes at 37° C., 250 μL of cells pre-incubated with a test compound were plated per well in the upper chambers of the inserts at a density of 2.5×10^5 cells/well. 300 μL/well medium containing CXCL12 (10 nM) and a test compound were plated in the lower chamber of the insert. After 2.5 h at 37° C., cells in both chambers of inserts were measured by flow cytometry (Guava Technologies, Hayward, Calif., USA).

[2] = target: T1, human CXCR4 (Homo sapiens, UniProt P61073); experiment: Inhibition of 125I-CXCL12 radioligand binding, membranes of human CXCR4-transfected HEK293 cells; conditions: 0.16 nM 125I-CXCL12, 60 min at 30 °C, read-out: concentration required to inhibit binding of 125I-CXCL12 to CXCR4 by 50% (IC50)
T1 construct: expressed in transfected cells; host or cells: HEK293 cells (membranes)
Experimental: Binding competition between the compounds of Formula (I) and human CXCL12 was assessed using a radioligand binding assay as described below.
Membranes (2-4 μg) prepared from human CXCR4-transfected HEK293 cells in 40 μL of assay buffer (50 mM HEPES-NaOH, pH 7.4, 100 mM NaCl, 5 mM MgCl2, 1 mM CaCl2, 0.5% bovine serum albumin) were incubated with 20 μL of radio-labeled ^125I-CXCL12 (0.16 nM) and 20 μL of a test compound in an assay plate (Costar Corning, Cambridge, Mass.). After 60 minutes at 30° C., the incubation was terminated by transferring the resulting reaction mixture to a 96-well GF/B filter plate (Millipore Corp., Billerica, Mass.) and filtered via a manifold. The plate was washed with 100 μL of ice-cold wash buffer (50 mM HEPES-NaOH, pH 7.4, 100 mM NaCl) four times. The radioactivity bound to the filter was measured by Topcount (PerkinElmer Inc., Waltham, Mass.).

T1 sequence (P61073 whole entry): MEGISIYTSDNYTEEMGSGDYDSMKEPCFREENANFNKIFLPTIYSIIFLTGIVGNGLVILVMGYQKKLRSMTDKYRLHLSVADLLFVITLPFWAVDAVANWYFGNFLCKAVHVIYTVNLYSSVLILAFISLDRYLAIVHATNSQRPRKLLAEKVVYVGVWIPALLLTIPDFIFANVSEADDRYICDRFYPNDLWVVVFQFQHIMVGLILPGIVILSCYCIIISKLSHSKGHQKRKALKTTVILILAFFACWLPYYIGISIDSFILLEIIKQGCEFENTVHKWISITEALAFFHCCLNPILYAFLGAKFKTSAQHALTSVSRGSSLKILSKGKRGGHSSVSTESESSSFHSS

SMILES | EC50 [1] [nM] | IC50 [2] [nM]
Cc1cc(NC2CCN(C(=O)CCNCC(=O)O)CC2)nc(NCc2nnc(CCCNCCCNC3CCCCC3)o2)n1 [Compound 44] | – | 100 to 1000
N[C@@H](CCC(=O)NCCN1CCC(Nc2nc(NCc3nnc(CCCNCCCNC4CCCCC4)o3)nc3ccccc23)CC1)C(=O)NCCP(=O)(O)O [Compound 51] | – | 100 to 1000
N[C@@H](CCC(=O)NCCN1CCC(Nc2nc(NCc3nnnn3CCCNCCCNC3CCCCC3)nc3ccccc23)CC1)C(=O)NCCP(=O)(O)O [Compound 52] | – | 100 to 1000
c1cnc2nc(NCc3nnn(CCCNCCCNC4CCCCC4)n3)nc(NC3CCNCC3)c2c1 [Compound 53] | – | 100 to 1000
O=C(O)[C@@H](O)CCC(=O)N1CCC(Nc2nc(NCc3nc(CCCNCCCNC4CCCCC4)co3)nc3ccccc23)CC1 [Compound 54] | – | 100 to 1000
c1nc2c(NCc3nnn(CCCNCCCNC4CCCCC4)n3)nc(N3CCNCC3)nc2[nH]1 [Compound 55] | – | 100 to 1000
c1cc2c(NC3CCNCC3)nc(NCc3nnn(CCCNCCCNC4CCCCC4)n3)nc2s1 [Compound 56] | – | 100 to 1000
Nc1cc(N2CCNCC2)nc(NCc2nnn(CCCNCCCNC3CCCCC3)n2)n1 [Compound 57] | – | 100 to 1000
N[C@@H](CCC(=O)N1CCC(Nc2nc(NCCc3cn(CCCCNCCCNC4CCCCC4)cn3)nc3ccccc23)CC1)C(=O)OCc1ccccc1 [Compound 60] | – | 100 to 1000
CCc1cc(NC2CCN(C(=O)CCNCC(=O)O)CC2)nc(NCc2nnn(CCCNCCCNC3CCCCC3)n2)n1 [Compound 63] | – | 100 to 1000
CCc1cc(NC2CCN(C(=O)CCCNCC(=O)O)CC2)nc(NCc2nnn(CCCNCCCNC3CCCCC3)n2)n1 [Compound 64] | – | 100 to 1000
CCc1cc(NC2CCN(C(=O)CC[C@H](N)C(=O)O)CC2)nc(NCc2nnn(CCCNCCCNC3CCCCC3)n2)n1 [Compound 65] | – | 100 to 1000
N[C@@H](CCC(=O)N1CCC(Nc2nc(NCc3nnnn3CCCNCCCNC3CCCCC3)nc3ccccc23)CC1)C(=O)O [Compound 67] | – | 100 to 1000
O=C(O)CNCCC(=O)N1CCC(Nc2nc(NCc3nnnn3CCCNCCCNC3CCCCC3)nc3ccccc23)CC1 [Compound 68] | – | 100 to 1000
CCc1cc(NC2CCN(C(=O)CC[C@H](N)C(=O)O)CC2)nc(NCc2nnc(CCCNCCCNC3CCCCC3)s2)n1 [Compound 69] | – | 100 to 1000
CCc1cc(NC2CCN(C(=O)CCNCC(=O)O)CC2)nc(NCc2nnc(CCCNCCCNC3CCCCC3)s2)n1 [Compound 70] | – | 100 to 1000
Cc1cc(NC2CCNCC2)nc(NCc2ncn(CCCNCCCNC3CCCCC3)n2)n1 [Compound 71] | – | 100 to 1000
FC(F)(F)c1cnc(NCc2nnn(CCCNCCCNC3CCCCC3)n2)nc1NC1CCNCC1 [Compound 74] | – | 100 to 1000
N[C@@H](CCC(=O)N1CCC(Nc2nc(NCc3ncn(CCCNCCCNC4CCCCC4)n3)nc3ccccc23)CC1)C(=O)O [Compound 77] | – | 100 to 1000
N[C@@H](CCC(=O)N1CCC(Nc2nc(NCc3nc(CNCCCNC4CCCCC4)c[nH]3)nc3ccccc23)CC1)C(=O)O [Compound 79] | – | 100 to 1000
CC(C)CC(NCCC(=O)N1CCC(Nc2nc(NCc3nnn(CCCNCCCNC4CCCCC4)n3)nc3ccccc23)CC1)C(=O)O (stereo not drawn) [Compound 80] | – | 100 to 1000
Cc1cc(NC2CCN(C(=O)CCNCC(=O)O)CC2)nc(NCc2ncn(CCCNCCCNC3CCCCC3)n2)n1 [Compound 81] | – | 100 to 1000
Cc1cc(NC2CCN(C(=O)CCNCC(=O)O)CC2)nc(NCc2nc(CNCCCNC3CCCCC3)c[nH]2)n1 [Compound 83] | – | 100 to 1000
N[C@@H](CCC(=O)NCCN1CCC(Nc2nc(NCc3nc(CNCCCNC4CCCCC4)cs3)nc3ccccc23)CC1)C(=O)NCCP(=O)(O)O [Compound 84] | – | 100 to 1000
Cc1cnc(NCc2nnn(CCCNCCCNC3CCCCC3)n2)nc1NC1CCN(C(=O)CCNCC(=O)O)CC1 [Compound 85] | – | 100 to 1000
Cc1cnc(NCc2nnn(CCCNCCCNC3CCCCC3)n2)nc1NC1CCN(C(=O)CC[C@H](N)C(=O)O)CC1 [Compound 86] | – | 100 to 1000

Results, then the compound that gave them:

EC50 [1] [nM] | IC50 [2] [nM] | SMILES
< 50 | < 50 | c1ccc2c(NC3CCNCC3)nc(NCc3cc(CCCNCCCNC4CCCCC4)on3)nc2c1 [Compound 1]
< 50 | < 50 | c1ccc2c(NC3CCNCC3)nc(NCc3coc(CCCNCCCNC4CCCCC4)n3)nc2c1 [Compound 2]
< 50 | < 50 | c1ccc2c(NC3CCNCC3)nc(NCc3nc(CCCNCCCNC4CCCCC4)cs3)nc2c1 [Compound 3]
< 50 | < 50 | c1ccc2c(NC3CCNCC3)nc(NCc3nnc(CCCNCCCNC4CCCCC4)o3)nc2c1 [Compound 6]
< 50 | < 50 | c1ccc2c(NC3CCNCC3)nc(NCc3nnc(CCCNCCCNC4CCCCC4)s3)nc2c1 [Compound 7]
< 50 | 50 to 100 | c1ccc2c(NC3CCNCC3)nc(NCCc3cn(CCCCNCCCNC4CCCCC4)cn3)nc2c1 [Compound 8]
– | < 50 | c1ccc2c(NC3CCNCC3)nc(NCc3cc(CCCNCCCNC4CCCCC4)[nH]n3)nc2c1 [Compound 9]
– | 50 to 100 | c1ccc2c(NC3CCNCC3)nc(NCc3ncn(CCCNCCCNC4CCCCC4)n3)nc2c1 [Compound 11]
– | < 50 | c1ccc2c(N3CCNCC3)nc(NCc3nnn(CCCNCCCNC4CCCCC4)n3)nc2c1 [Compound 12]
< 50 | 50 to 100 | c1ccc2c(NC3CCNCC3)nc(NCc3nnnn3CCCNCCCNC3CCCCC3)nc2c1 [Compound 14]
< 50 | < 50 | Cc1cc(NC2CCNCC2)nc(NCc2cc(CCCNCCCNC3CCCCC3)on2)n1 [Compound 15]
< 50 | < 50 | Cc1cc(NC2CCNCC2)nc(NCc2coc(CCCNCCCNC3CCCCC3)n2)n1 [Compound 16]
< 50 | < 50 | Cc1cc(NC2CCNCC2)nc(NCc2nc(CCCNCCCNC3CCCCC3)cs2)n1 [Compound 17]
< 50 | < 50 | Cc1cc(NC2CCNCC2)nc(NCc2nc(CCCNCCCNC3CCCCC3)co2)n1 [Compound 18]
– | < 50 | Cc1cc(NC2CCNCC2)nc(NCc2noc(CCCNCCCNC3CCCCC3)n2)n1 [Compound 19]
< 50 | 50 to 100 | Cc1cc(NC2CCNCC2)nc(NCc2nnc(CCCNCCCNC3CCCCC3)o2)n1 [Compound 20]
< 50 | < 50 | Cc1cc(NC2CCNCC2)nc(NCc2nnc(CCCNCCCNC3CCCCC3)s2)n1 [Compound 21]

EC50 [1] [nM] | IC50 [2] [nM] | SMILES
< 50 | 50 to 100 | Cc1cc(NC2CCNCC2)nc(NCCc2cn(CCCCNCCCNC3CCCCC3)cn2)n1 [Compound 22]
< 50 | < 50 | Cc1cc(NC2CCNCC2)nc(NCc2nnn(CCCNCCCNC3CCCCC3)n2)n1 [Compound 23]
< 50 | 50 to 100 | Cc1cc(NC2CCNCC2)nc(NCc2nnc(CCCNCCCNC3CCCCC3)[nH]2)n1 [Compound 24]
– | < 50 | CCc1cc(NC2CCNCC2)nc(NCc2nnc(CCCNCCCNC3CCCCC3)s2)n1 [Compound 25]
– | 50 to 100 | CCc1cc(NC2CCNCC2)nc(NCc2nnc(CCCNCCCNC3CCCCC3)[nH]2)n1 [Compound 27]
– | < 50 | Cc1cc(NC2CCNCC2)nc(NCc2cc(CCCNCCCNC3CCCCC3)[nH]n2)n1 [Compound 28]
– | 100 to 1000 | N[C@@H](CCC(=O)N1CCC(Nc2nc(NCCc3cn(CCCCNCCCNC4CCCCC4)cn3)nc3ccccc23)CC1)C(=O)O [Compound 36]
– | 50 to 100 | Cc1cc(NC2CCN(C(=O)CCNCC(=O)O)CC2)nc(NCc2noc(CCCNCCCNC3CCCCC3)n2)n1 [Compound 43]
– | 50 to 100 | c1cc(NC2CCNCC2)nc(NCc2nnn(CCCNCCCNC3CCCCC3)n2)n1 [Compound 58]
– | 50 to 100 | CCc1cc(NC2CCN(C(=O)CC[C@H](N)C(=O)O)CC2)nc(NCc2nnc(CCCNCCCNC3CCCCC3)[nH]2)n1 [Compound 66]
– | 50 to 100 | C1=NC(CNc2nc(NC3CCNCC3)c3ccccc3n2)=NC1CNCCCNC1CCCCC1 (stereo not drawn) [Compound 72]
– | 50 to 100 | Cc1cc(NC2CCNCC2)nc(NCc2nc(CNCCCNC3CCCCC3)c[nH]2)n1 [Compound 73]
– | < 50 | Cc1cnc(NCc2nnn(CCCNCCCNC3CCCCC3)n2)nc1NC1CCNCC1 [Compound 75]
– | 50 to 100 | N[C@@H](CCC(=O)N1CCC(Nc2nc(NCc3cc(CCCNCCCNC4CCCCC4)n[nH]3)nc3ccccc23)CC1)C(=O)O [Compound 76]
– | 50 to 100 | O=C(O)[C@H]1CCCN1CCC(=O)N1CCC(Nc2nc(NCc3nnn(CCCNCCCNC4CCCCC4)n3)nc3ccccc23)CC1 [Compound 78]
– | 50 to 100 | CCOC(=O)CNCCC(=O)N1CCC(Nc2cc(C)nc(NCc3cc(CCCNCCCNC4CCCCC4)n[nH]3)n2)CC1 [Compound 82]
